Reference: US20200236940A1, “2-(HET)ARYL-SUBSTITUTED FUSED HETEROCYCLE DERIVATIVES AS PESTICIDES” (Bayer Aktiengesellschaft, priority 2017, published 2020)

Experiments:
Format in all cases: in vivo
Myzus persicae [1] = assay: Myzus persicae oral test; details: 120 h, application rate 4 ppm, after 5 days, read-out: efficacy
Method: Myzus persicae—Oral Test Solvent: 100 parts by weight of acetone To produce a suitable active ingredient formulation, 1 part by weight of active ingredient is dissolved with the stated parts by weight of solvent and made up to the desired concentration with water. 50 μl of the active ingredient formulation are transferred into microtitre plates and made up to a final volume of 200 μl with 150 μl of IPL41 insect medium (33%+15% sugar). Subsequently, the plates are sealed with parafilm, which a mixed population of green peach aphids (Myzus persicae) within a second microtitre plate is able to puncture and imbibe the solution. After 5 days, the efficacy in % is determined. 100% means that all the aphids have been killed; 0% means that no aphids have been killed.

Myzus persicae [2] = assay: Myzus persicae spray test (MYZUPE), Chinese cabbage leaf discs; details: foliar, 120 h; for pest or weed control at 20 g/ha: application rate 20 g/ha; for pest or weed control at 20 g/ha / pest or weed control at 100 g/ha: after 5 days, read-out: efficacy; for pest or weed control at 100 g/ha: application rate 100 g/ha
Method: Myzus persicae—Spray Test [table] To produce a suitable active ingredient formulation, 1 part by weight of active ingredient is dissolved with the specified parts by weight of solvent and made up to the desired concentration with water containing an emulsifier concentration of 1000 ppm. To produce further test concentrations, the formulation is diluted with emulsifier-containing water. Discs of Chinese cabbage leaves (Brassica pekinensis) infested by all stages of the green peach aphid (Myzus persicae) are sprayed with an active ingredient formulation of the desired concentration. After 5 days, the efficacy in % is determined. 100% means that all the aphids have been killed; 0% means that no aphids have been killed. Myzus persicae—Spray Test (MYZUPE) [table] To produce a suitable active ingredient formulation, 1 part by weight of active ingredient is dissolved with the specified parts by weight of solvent and made up to the desired concentration with water containing an emulsifier concentration of 1000 ppm. To produce further test concentrations, the formulation is diluted with emulsifier-containing water. Discs of Chinese cabbage leaves (Brassica pekinensis) infested by all stages of the green peach aphid (Myzus persicae) are sprayed with an active ingredient formulation of the desired concentration. After the desired period of time, the efficacy in % is determined. 100% means that all the aphids have been killed; 0% means that no aphids have been killed.

Phaedon cochleariae = Phaedon cochleariae spray test, Chinese cabbage leaf discs; details: foliar, 168 h, application rate 100 g/ha, after 7 days, larvae, read-out: efficacy
Method: Phaedon cochleariae—Spray Test
To produce a suitable active ingredient formulation, 1 part by weight of active ingredient is dissolved with the specified parts by weight of solvent and made up to the desired concentration with water containing an emulsifier concentration of 1000 ppm. To produce further test concentrations, the formulation is diluted with emulsifier-containing water.
After 7 days, the efficacy in % is determined. 100% means that all the beetle larvae have been killed; 0% means that no beetle larvae have been killed.

Spodoptera frugiperda [3] = assay: Spodoptera frugiperda spray test, maize leaf discs; details: for Emax at 100 g/ha: Spodoptera frugiperda, foliar, 168 h, SPODFR, 100 g of ai/ha, 7 dat, read-out: % efficacy; for efficacy: application rate 100 g/ha, after 7 days, caterpillars
Method: Spodoptera frugiperda—Spray Test [table] To produce a suitable active ingredient formulation, 1 part by weight of active ingredient is dissolved with the specified parts by weight of solvent and made up to the desired concentration with water containing an emulsifier concentration of 1000 ppm. To produce further test concentrations, the formulation is diluted with emulsifier-containing water. Leaf discs of maize (Zea mays) are sprayed with an active ingredient formulation of the desired concentration and, after drying, populated with caterpillars of the armyworm (Spodoptera frugiperda). After 7 days, the efficacy in % is determined. 100% means that all the caterpillars have been killed; 0% means that no caterpillar has been killed.

Ctenocephalides felis = Ctenocephalides felis oral test; details: application rate 100 ppm, after 2 days
Method: Ctenocephalides felis—Oral Test Solvent: dimethyl sulfoxide To produce a suitable active ingredient formulation, 10 mg of active ingredient are mixed with 0.5 ml of dimethyl sulfoxide. Dilution with citrated cattle blood gives the desired concentration. About 20 unfed adult cat fleas (Ctenocephalides felis) are placed into a chamber which is closed at the top and bottom with gauze. A metal cylinder whose bottom end is closed with parafilm is placed onto the chamber. The cylinder contains the blood/active ingredient formulation, which can be imbibed by the fleas through the parafilm membrane. After 2 days, the kill in % is determined. 100% means that all of the fleas have been killed; 0% means that none of the fleas have been killed.

Lucilia cuprina = Lucilia cuprina test; details: after 2 days, L1 larvae
Method: Lucilia cuprina Test Solvent: dimethyl sulfoxide To produce a suitable active ingredient formulation, 10 mg of active ingredient are mixed with 0.5 ml of dimethyl sulfoxide, and the concentrate is diluted with water to the desired concentration. About 20 L1 larvae of the Australian sheep blowfly (Lucilia cuprina) are transferred into a test vessel containing minced horsemeat and the active ingredient formulation of the desired concentration. After 2 days, the kill in % is determined. 100% means that all the larvae have been killed; 0% means that no larvae have been killed.

Myzus persicae [4] = assay: Myzus persicae spray test, bell pepper plants; details: application rate 20 ppm, after 6 days
Method: Myzus persicae—Spray Test Solvent: 14 parts by weight of dimethylformamide Emulsifier: alkylaryl polyglycol ether To produce a suitable active ingredient formulation, 1 part by weight of active ingredient is dissolved with the specified parts by weight of solvent and made up to the desired concentration with water containing an emulsifier concentration of 1000 ppm. To produce further test concentrations, the formulation is diluted with emulsifier-containing water. If the addition of ammonium salts or/and penetrants is required, these are each added in a concentration of 1000 ppm to the formulation solution. Bell pepper plants (Capsicum annuum) severely infested with the green peach aphid (Myzus persicae) are treated by spraying with the active ingredient formulation in the desired concentration. After 6 days, the kill in % is determined. 100% means that all of the aphids have been killed; 0% means that none of the aphids have been killed.

Nezara viridula = Nezara viridula spray test; details: 96 h, NEZAVI, 500 g of ai/ha, 4 dat, read-out: % efficacy
Method: Nezara viridula—Spray Test [table] To produce a suitable active ingredient formulation, 1 part by weight of active ingredient is dissolved with the specified parts by weight of solvent and made up to the desired concentration with water containing an emulsifier concentration of 1000 ppm. To produce further test concentrations, the formulation is diluted with emulsifier-containing water. If the addition of ammonium salts or/and penetrants is required, these are each added in a concentration of 1000 ppm to the formulation solution. Barley plants (Hordeum vulgare) infected with larvae of the Southern green shield bug (Nezara viridula) are sprayed with an active ingredient formulation of the desired concentration. After the desired period of time, the efficacy in % is determined. 100% means that all of the shield bugs have been killed; 0% means that none of the shield bugs have been killed.

Spodoptera frugiperda [5] = assay: Spodoptera frugiperda spray test (SPODFR S), cotton leaves; details: 168 h, 7 dat, read-out: % efficacy
Method: Spodoptera frugiperda—Spray Test (SPODFR S) Solvent: 14 parts by weight of dimethylformamide Emulsifier: alkylaryl polyglycol ether To produce a suitable active ingredient formulation, 1 part by weight of active ingredient is dissolved with the specified parts by weight of solvent and made up to the desired concentration with water containing an emulsifier concentration of 1000 ppm. To produce further test concentrations, the formulation is diluted with emulsifier-containing water. If the addition of ammonium salts or/and penetrants is required, these are each added in a concentration of 1000 ppm to the formulation solution. Cotton leaves (Gossypium hirsutum) are sprayed with an active ingredient formulation of the desired concentration and populated with caterpillars of the armyworm (Spodoptera frugiperda). After the desired time, the kill in % is determined. 100% means that all caterpillars have been killed; 0% means that none of the caterpillars have been killed.

Row | SMILES | pest or weed control at 4 ppm (Myzus persicae [1]) [%] | pest or weed control at 20 g/ha (Myzus persicae [2]) [%] | pest or weed control at 100 g/ha (Phaedon cochleariae) [%] | further results
1 | CCS(=O)(=O)c1ccc(NC(=O)NC)nc1-c1nc2cc(C(F)(F)F)nc(C)c2n1C [Example I-002] | 100 | 90 |  | 
2 | CCS(=O)(=O)c1ccc(-n2cc(Cl)cn2)nc1-c1nc2cc(C(F)(F)F)nc(C)c2n1C [Example I-004] | 100 |  | 100 | 
3 | CCS(=O)(=O)c1ccc(-n2cncn2)nc1-c1nc2cc(C(F)(F)F)nc(Cl)c2n1C [Example I-005] | 100 | 100 |  | pest or weed control at 100 g/ha (Myzus persicae [2]): 100%; Emax at 100 g/ha (Spodoptera frugiperda [3]): 100%; efficacy (Spodoptera frugiperda [3]): 100%
4 | CCS(=O)(=O)c1ccc(NC(=O)NC)nc1-c1nc2cc(C(F)(F)F)nc(Cl)c2n1C [Example I-006] | 100 | 90 |  | pest or weed control at 100 g/ha (Myzus persicae [2]): 90%
5 | CCS(=O)(=O)c1ccc(N)nc1-c1nc2cc(C(F)(F)F)nc(C#N)c2n1C [Example I-007] | 100 | 90 | 100 | 
6 | CCS(=O)(=O)c1ccc(-n2cc(C#N)cn2)nc1-c1nc2cc(C(F)(F)F)nc(C)c2n1C [Example I-008] | 100 |  | 100 | efficacy (kill) (Ctenocephalides felis): 100%; efficacy (kill) (Lucilia cuprina; application rate 100 ppm): 100%
7 | CCS(=O)(=O)c1ccc(-n2cc(Cl)cn2)nc1-c1nc2cc(C(F)(F)F)nc(C#N)c2n1C [Example I-009, 2-[6-(4-chloro-1H-pyrazol-1-yl)-3-(ethylsulfonyl)pyridin-2-yl]-3-methyl-6-(trifluoromethyl)-3H-imidazo[4,5-c]pyridine-4-carbonitrile] | 90 |  |  | efficacy (kill) (Lucilia cuprina; application rate 20 ppm): 100%; efficacy (kill) (Lucilia cuprina; application rate 100 ppm): 100%
8 | CCS(=O)(=O)c1ccc(NC(=O)NC)nc1-c1nc2cc(C(F)(F)F)nc(C#N)c2n1C [Example I-010] | 100 |  |  | efficacy (kill) (Ctenocephalides felis): 100%; efficacy (kill) (Myzus persicae [4]): 99%
9 | CCS(=O)(=O)c1ccc(-n2ncn(-c3ccc(Cl)cc3)c2=O)nc1-c1nc2cc(C(F)(F)F)nc(C#N)c2n1C [Example I-011, 2-{6-[4-(4-chlorophenyl)-5-oxo-4,5-dihydro-1H-1,2,4-triazol-1-yl]-3-(ethylsulfonyl)pyridin-2-yl}-3-methyl-6-(trifluoromethyl)-3H-imidazo[4,5-c]pyridine-4-carbonitrile] | 100 |  | 100 | efficacy (kill) (Ctenocephalides felis): 100%; Emax at 500 g/ha (Nezara viridula): 90%; efficacy (kill) (Lucilia cuprina; application rate 20 ppm): 100%; efficacy (kill) (Lucilia cuprina; application rate 100 ppm): 100%
10 | CCS(=O)(=O)c1ccc(-n2cncn2)nc1-c1nc2cc(C(F)(F)F)nc(C#N)c2n1C [Example I-012] | 100 |  | 83 | efficacy (kill) (Myzus persicae [4]): 100%
11 | CCS(=O)(=O)c1ccc(C(=O)NC)nc1-c1nc2cc(C(F)(F)F)nc(C)c2n1C [Example I-014] | 100 | 90 |  | 
12 | CCS(=O)(=O)c1ccc(C(=O)N(C)C)nc1-c1nc2cc(C(F)(F)F)nc(C)c2n1C [Example I-015] | 100 | 90 |  | pest or weed control at 100 g/ha (Myzus persicae [2]): 90%
13 | CCc1nc(C(F)(F)F)cc2nc(-c3nc(-n4ncn(-c5ccc(Cl)cc5)c4=O)ccc3S(=O)(=O)CC)n(C)c12 [Example I-016] | 100 |  | 100 | Emax at 4 ppm (Spodoptera frugiperda [5]): 100%; efficacy (Spodoptera frugiperda [3]): 100%; Emax at 500 g/ha (Nezara viridula): 50%
14 | C=Cc1nc(C(F)(F)F)cc2nc(-c3nc(-n4ncn(-c5ccc(Cl)cc5)c4=O)ccc3S(=O)(=O)CC)n(C)c12 [Example I-017] | 100 | 90 |  | efficacy (Spodoptera frugiperda [3]): 100%
15 | CCS(=O)(=O)c1ccc(-n2cncn2)nc1-c1nc2cc(C(F)(F)F)ncc2n1C [Prior art WO 2016/124563 (Ex. 32), reference compound] |  |  |  | Emax at 100 g/ha (Spodoptera frugiperda [3]): 50%
16 | CCS(=O)(=O)c1ccc(-n2ccnn2)nc1-c1nc2cc(C(F)(F)F)ncc2n1C [Prior art according to WO 2016/124563, reference compound] |  |  |  | Emax at 4 g/ha (Myzus persicae [2]; MYZUPE, 4 g of ai/ha, 5 dat, read-out: % efficacy): 0%
